{"source": "patent US20020115728A1", "about": "“Compositions and methods for treating cardiovascular disorders” (priority 2000, published 2002)", "type_in_all_cases": "in vivo", "key": {"[1]": {"tested_on": "plasma lipids obtained from apoE−/− mice", "assay": "Ex vivo oxidizability of plasma lipids (aqueous peroxyl radical generator)", "conditions": "pooled plasma of probucol-treated apoE−/− mice, 5 mM MPH, 37° C.", "description": "Pooled plasma obtained from control (open symbols) or probucol-treated (closed symbols) mice was exposed to 5 mM of the aqueous peroxyl radical generator MPH and incubated under air at 37° C. […] Data shown are mean±SD of a single oxidation experiment performed in triplicate using pooled plasma. Where error bars are not shown, error is smaller than the symbol.\n(§1) Plasma was obtained from control and probucol mice and aliquots frozen for subsequent determination of lipids. Separate aliquots were acidified with metaphosphoric acid (5%) to stabilize vitamin C prior to freezing and storage at −80° C. The remainder was pooled appropriately and used for ex vivo oxidation initiated by the peroxyl radical generator AAPH and lipoprotein separation by FPLC with UV280nm detection, as described in J Lipid Res. 1999;40:1104-1112.\nEnhanced resistance of plasma lipoproteins to oxidation is often used as a measure of antioxidant efficacy. Therefore, we examined MPH-induced oxidation of pooled plasma from control and treated animals. […] These observations can be explained readily on the basis of tocopherol-mediated peroxidation."}, "[2]": {"tested_on": "ballooned New Zealand White rabbits", "assay": "Re-endothelialization in cholesterol-fed and normal chow fed ballooned rabbits", "description": "Results are from two separate experiments and represent mean±SD of six (cholesterol diet) and five animals (normal diet) per group. Asterisk indicates statistically significant higher values compared with corresponding controls, with p-values of 0.002, 0.015 and 0.025 for *, ** and * respectively."}, "[3]": {"tested_on": "atherosclerotic lesions in apoE−/− mice", "assay": "Atherosclerotic lesion cross-section areas at four aortic sites (morphometry)", "description": "Male C57BL/6J mice, homozygous for the disrupted apoE gene (apoE−/−) were fed standard chow (Lab-Feed, Sydney, Australia) until aged 10 weeks. […] The high fat diet (control and probucol-supplemented) was prepared, according to the specifications of the Harlan Teklad diet TD88137. […]\nLesions were assessed at four different sites along the aorta, in the aortic root, in the aortic arch, the descending thoracic and in the proximal abdominal aorta, and cross-sections (2-3 μm thick) were prepared and stained with Weigert's hematoxylin-van Gieson."}, "apoE−/− mice": {"tested_on": "apoE−/− mice", "assay": "Plasma lipids and antioxidants", "conditions": "1% probucol, 24 weeks", "description": "Male C57BL/6J mice, homozygous for the disrupted apoE gene (apoE−/−) were fed standard chow (Lab-Feed, Sydney, Australia) until aged 10 weeks. […] The high fat diet (control and probucol-supplemented) was prepared, according to the specifications of the Harlan Teklad diet TD88137.\nas §1\n(§2) Lipid-soluble antioxidants and lipids were quantified by HPLC as described in FASEB J. 1999;13:667-675. For ascorbate analysis, frozen acidified samples were thawed, diluted with DPBS to adjust the pH to 7.4 and then immediately subjected to HPLC. Plasma triglycerides were determined enzymatically (Boehringer, Mannheim, Germany).\nApoE−/− mice were fed either a control or probucol-supplemented diet for 24 weeks before aortas and plasma were analysed."}, "[4]": {"assay": "Probucol and metabolite levels in aorta and plasma", "conditions": "apoE−/− mice, 1% probucol, 24 weeks", "description": "Male C57BL/6J mice, homozygous for the disrupted apoE gene (apoE−/−) were fed standard chow (Lab-Feed, Sydney, Australia) until aged 10 weeks.\nas §2\nPooled aortas were snap frozen in liquid nitrogen, pulverised, resuspended in Buffer A, homogenised and then either treated with metaphosphoric acid (for ascorbate) or extracted and the hexane fraction analysed for lipid-soluble antioxidants, cholesterol (C), choleseteryl esters (CE), lipid hydroperoxides (LOOH) and cholesteryl ester hydroxides (CE-OH) by HPLC as described in Methods Enzymol. 1994;233:469-489. LOOH and CE-OH were measured as markers of lipoprotein lipid oxidation, as they are the primary and major oxidation products formed when lipoproteins from apoE−/− mice undergo oxidation. […] All compounds were quantified by peak area comparison with authentic standards, and protein determined."}, "[5]": {"tested_on": "atherosclerosis in apoE−/−;LDLr−/− mice", "assay": "Evaluation of atherosclerosis (intima volume, descending thoracic aorta)", "conditions": "bisphenol for 14 weeks", "description": "Aortic lesions were assessed in segments centered around the third pair of intercostal artery branches in the descending thoracic aorta. Briefly, the fixed aortas were dehydrated in ethanol, cleared with xylene and embedded in paraffin. Serial sections (10 in total; each 2-3 μm thick and 100 μm apart) were cut and stained using Weigerts hematoxylin-van Gieson. Aortic thickening was assessed as the total volume of intima in the segment investigated in bisphenol-treated versus control samples.\nAortic volumes were determined by planimetry, using a Lucivid device (MicroBrightField, Colchester, Vermont, […]) attached to a Leitz DRM microscope that allowed the superposition of a computer monitor onto the cross sectional image."}, "[6]": {"conditions": "2% Cholesterol-fed ballooned rabbits"}, "[7]": {"conditions": "Normal Chow fed ballooned rabbits"}, "[8]": {"conditions": "apoE−/− mice, 1% probucol, 24 weeks"}}, "note": "Marks after values point to notes of the source that are not given here."}
{"smiles": "CC(C)(Sc1cc(C(C)(C)C)c(O)c(C(C)(C)C)c1)Sc1cc(C(C)(C)C)c(O)c(C(C)(C)C)c1", "note": "[Probucol, probucol]", "values": [{"measurement": "fate of the compound present in plasma during the oxidation period", "setting": "[1]", "result": "remained unchanged"}, {"measurement": "onset and initial rate of CE-O(O)H accumulation vs control plasma", "setting": "[1]; air", "result": "delayed and decreased"}, {"measurement": "Re-endothelialized area, Abdominal Aorta", "setting": "[2]; [6]", "result": "55.1 ± 7.1** % total surface area"}, {"measurement": "Re-endothelialized area, Thoracic Aorta", "setting": "[2]; [6]", "result": "57.3 ± 5.1* % total surface area"}, {"measurement": "Re-endothelialized area, Abdominal Aorta", "setting": "[2]; [7]", "result": "48.2 ± 9.0*** % total surface area"}, {"measurement": "Re-endothelialized area, Thoracic Aorta", "setting": "[2]; [7]", "result": "50.4 ± 6.4** % total surface area"}, {"measurement": "lesion formation at the abdominal aorta", "setting": "[3]; [8]", "result": "effectively prevented lesion formation"}, {"measurement": "lesions in the aortic arch and descending thoracic aorta vs control", "setting": "[3]; [8]", "result": "significantly smaller"}, {"measurement": "lesion cross-section area, Aortic Root", "setting": "[3]; apoE−/− mice, high fat diet with 1% (w/w) probucol, 24 weeks, aortic root", "result": 1180, "unit": "μm^2 × 10^−3"}, {"measurement": "lesion cross-section area, Abdominal Aorta", "setting": "[3]; apoE−/− mice, high fat diet with 1% probucol, 24 weeks, abdominal aorta", "result": "12 ± 12(3) μm^2 × 10^−3"}, {"measurement": "lesion cross-section area, Arch", "setting": "[3]; apoE−/− mice, high fat diet with 1% probucol, 24 weeks, aortic arch", "result": "140 ± 34", "unit": "μm^2 × 10^−3"}, {"measurement": "lesion cross-section area, Descending Thoracic Aorta", "setting": "[3]; apoE−/− mice, high fat diet with 1% probucol, 24 weeks, descending thoracic aorta", "result": "*5 ± 4 (8)* μm^2 × 10^−3"}, {"measurement": "Treatment effect on lesion area, Abdominal Aorta", "setting": "[3]; probucol vs controls, abdominal aorta", "result": 10, "unit": "%"}, {"measurement": "Treatment effect on lesion area, Arch", "setting": "[3]; probucol vs controls, aortic arch", "result": 44, "unit": "%"}, {"measurement": "Treatment effect on lesion area, Aortic Root", "setting": "[3]; probucol vs controls, aortic root", "result": 146, "unit": "%"}, {"measurement": "Treatment effect on lesion area, Descending Thoracic Aorta", "setting": "[3]; probucol vs controls, descending thoracic aorta", "result": 15, "unit": "%"}, {"measurement": "decrease of plasma vitamin E vs controls", "setting": "apoE−/− mice", "result": "~4", "unit": "fold"}, {"measurement": "increase of plasma ascorbate vs controls", "setting": "apoE−/− mice", "result": "~1.4", "unit": "fold"}, {"measurement": "Plasma Ascorbate", "setting": "apoE−/− mice; plasma", "result": 129.2, "unit": "µM"}, {"measurement": "Plasma C18:2", "setting": "apoE−/− mice; plasma", "result": "1.3 ± 0.8", "unit": "mM"}, {"measurement": "Plasma C20:4", "setting": "apoE−/− mice; plasma", "result": "0.2 ± 0.2", "unit": "mM"}, {"measurement": "Plasma C (cholesterol)", "setting": "apoE−/− mice; plasma", "result": "2.6 ± 1.2", "unit": "mM"}, {"measurement": "Plasma CE-OH", "setting": "apoE−/− mice; plasma", "result": 0.0002, "unit": "mM"}, {"measurement": "Plasma Total coenzyme Q", "setting": "apoE−/− mice; plasma", "result": 0.4, "unit": "µM"}, {"measurement": "Plasma Triglycerides", "setting": "apoE−/− mice; plasma", "result": "0.4 ± 0.0", "unit": "mM"}, {"measurement": "Plasma Ubiquinol-10", "setting": "apoE−/− mice; plasma", "result": "0.01 ± 0.02", "unit": "µM"}, {"measurement": "Plasma Ubiquinone-9", "setting": "apoE−/− mice; plasma", "result": "0.3 ± 0.1", "unit": "µM"}, {"measurement": "Plasma Ubiquinone-10", "setting": "apoE−/− mice; plasma", "result": "0.1 ± 0.1", "unit": "µM"}, {"measurement": "Plasma α-Tocopherol", "setting": "apoE−/− mice; plasma", "result": "10.5 ± 3.50", "unit": "µM"}, {"measurement": "drug metabolised to bisphenol or diphenoquinone, aorta", "setting": "[4]; aorta", "result": "~11", "unit": "%"}, {"measurement": "drug converted into bisphenol or diphenoquinone, plasma", "setting": "[4]; plasma", "result": "~8", "unit": "%"}]}
{"smiles": "CC(C)(C)c1cc(-c2cc(C(C)(C)C)c(O)c(C(C)(C)C)c2)cc(C(C)(C)C)c1O", "note": "[Bisphenol, bisphenol]", "values": [{"measurement": "fate of the compound present in plasma during the oxidation period", "setting": "[1]", "result": "oxidised into diphenoquinone"}, {"measurement": "lesion size (intimal volume, descending thoracic aorta) vs age-matched controls", "setting": "[5]", "result": "substantially decreased"}]}
